Assay results: ChEMBL document CHEMBL1201862, “PubChem BioAssay data set” (2004)
Calls of active or inactive are those of the source.

Assays:
Assay type in all cases: functional
[1] = molecular target: 5'-AMP-activated protein kinase catalytic subunit alpha-1 (Homo sapiens, UniProt Q13131)
[2] = molecular target: T1, Inhibitor of nuclear factor kappa-B kinase subunit epsilon (Homo sapiens, UniProt Q14164); assay: Navigating the Kinome. Panel member name: IKBKE
T1 sequence (Q14164 whole entry): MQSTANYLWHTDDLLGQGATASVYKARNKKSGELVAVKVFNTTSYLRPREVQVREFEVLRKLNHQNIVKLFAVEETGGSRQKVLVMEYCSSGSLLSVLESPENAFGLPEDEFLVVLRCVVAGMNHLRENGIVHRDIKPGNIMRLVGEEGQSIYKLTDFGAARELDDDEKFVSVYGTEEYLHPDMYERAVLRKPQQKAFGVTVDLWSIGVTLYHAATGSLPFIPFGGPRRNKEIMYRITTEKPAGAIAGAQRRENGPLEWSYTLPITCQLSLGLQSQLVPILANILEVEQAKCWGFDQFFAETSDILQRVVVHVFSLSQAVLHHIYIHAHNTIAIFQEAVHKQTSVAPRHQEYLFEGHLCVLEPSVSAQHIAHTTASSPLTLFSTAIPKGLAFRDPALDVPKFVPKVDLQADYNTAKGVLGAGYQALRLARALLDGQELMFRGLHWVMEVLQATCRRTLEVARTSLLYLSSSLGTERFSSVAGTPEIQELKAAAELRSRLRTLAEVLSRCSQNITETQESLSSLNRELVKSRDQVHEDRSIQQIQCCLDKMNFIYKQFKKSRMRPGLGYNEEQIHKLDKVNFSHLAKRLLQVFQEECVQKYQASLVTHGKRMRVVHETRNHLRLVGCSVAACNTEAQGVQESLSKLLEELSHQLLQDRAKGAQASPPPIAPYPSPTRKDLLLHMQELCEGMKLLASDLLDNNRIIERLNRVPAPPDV

[3] = molecular target: Protein kinase C theta type (Homo sapiens, UniProt Q04759); assay: Navigating the Kinome. Panel member name: PRKCQ
[4] = molecular target: Cyclin-dependent kinase 5 (Homo sapiens, UniProt Q00535);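 note: CDK5 measured as one member of a kinase profiling panel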
[5] = molecular target: Rho-associated protein kinase 1 (Homo sapiens, UniProt Q13464);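 note: measured within a broad kinome-wide panel profiling many kinases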
[6] = molecular target: BDNF/NT-3 growth factors receptor (Homo sapiens, UniProt Q16620);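 note: NTRK2 measured as one member of a broad kinome-wide kinase profiling panel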
[7] = molecular target: Calcium/calmodulin-dependent protein kinase type II subunit alpha (Homo sapiens, UniProt Q9UQM7); assay: Navigating the Kinome. Panel member name: CAMK2A
[8] = molecular target: Mitogen-activated protein kinase 8 (Homo sapiens, UniProt P45983);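 note: value comes from one member of a kinome-wide kinase profiling panel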
[9] = molecular target: Dual specificity protein kinase CLK2 (Homo sapiens, UniProt P49760)
[10] = molecular target: Cyclin-dependent kinase 9 (Homo sapiens, UniProt P50750);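 note: value from the CDK9 entry of a kinome-spanning kinase panel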
[11] = molecular target: Fibroblast growth factor receptor 1 (Homo sapiens, UniProt P11362)
[12] = molecular target: Proto-oncogene tyrosine-protein kinase receptor Ret (Homo sapiens, UniProt P07949);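 note: measured within a kinome-wide profiling panel, RET as the panel member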
[13] = molecular target: High affinity nerve growth factor receptor (Homo sapiens, UniProt P04629);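 note: NTRK1 tested as one member of a kinome-wide profiling panel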
[14] = molecular target: Cyclin-dependent kinase 7 (Homo sapiens, UniProt P50613);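 note: value comes from a kinome-wide kinase profiling panel in which CDK7 is one member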
[15] = molecular target: Death-associated protein kinase 3 (Homo sapiens, UniProt O43293);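 note: measured as one member of a kinome-wide profiling panel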
[16] = molecular target: Glycogen synthase kinase-3 beta (Homo sapiens, UniProt P49841);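 note: value comes from a broad kinome profiling panel, with GSK3B as the panel member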
[17] = molecular target: Macrophage-stimulating protein receptor (Homo sapiens, UniProt Q04912); assay: Navigating the Kinome. Panel member name: MST1R
[18] = molecular target: Vascular endothelial growth factor receptor 2 (Homo sapiens, UniProt P35968)
[19] = molecular target: ALK tyrosine kinase receptor (Homo sapiens, UniProt Q9UM73);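 note: ALK tested as one member of a kinase panel screen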
[20] = molecular target: G protein-coupled receptor kinase 5 (Homo sapiens, UniProt P34947); assay: Navigating the Kinome. Panel member name: GPRK5
[21] = molecular target: Tyrosine-protein kinase BTK (Homo sapiens, UniProt Q06187)
[22] = molecular target: T2, Serine/threonine-protein kinase TBK1 (Homo sapiens, UniProt Q9UHD2); assay: Navigating the Kinome. Panel member name: TBK1
T2 sequence (Q9UHD2 whole entry): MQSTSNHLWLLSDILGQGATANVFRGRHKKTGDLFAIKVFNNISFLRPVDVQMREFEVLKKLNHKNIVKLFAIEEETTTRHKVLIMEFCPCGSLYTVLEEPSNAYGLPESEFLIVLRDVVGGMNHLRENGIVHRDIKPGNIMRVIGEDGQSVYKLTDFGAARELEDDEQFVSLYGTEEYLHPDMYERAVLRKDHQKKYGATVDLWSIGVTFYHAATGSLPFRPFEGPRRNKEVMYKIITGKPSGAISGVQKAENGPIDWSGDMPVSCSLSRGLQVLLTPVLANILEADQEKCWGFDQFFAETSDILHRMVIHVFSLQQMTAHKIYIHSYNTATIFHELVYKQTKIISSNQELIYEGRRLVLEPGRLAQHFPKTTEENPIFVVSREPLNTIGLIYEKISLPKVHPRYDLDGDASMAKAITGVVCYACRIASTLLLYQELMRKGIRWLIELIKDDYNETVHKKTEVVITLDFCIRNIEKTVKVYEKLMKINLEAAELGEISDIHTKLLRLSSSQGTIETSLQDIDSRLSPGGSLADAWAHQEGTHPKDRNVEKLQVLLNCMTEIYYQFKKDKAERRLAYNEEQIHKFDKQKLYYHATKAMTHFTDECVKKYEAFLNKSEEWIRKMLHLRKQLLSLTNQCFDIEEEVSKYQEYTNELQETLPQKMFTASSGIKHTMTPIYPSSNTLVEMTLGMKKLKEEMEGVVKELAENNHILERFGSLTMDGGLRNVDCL

Chain of Vascular endothelial growth factor receptor 2 (P35968 whole entry): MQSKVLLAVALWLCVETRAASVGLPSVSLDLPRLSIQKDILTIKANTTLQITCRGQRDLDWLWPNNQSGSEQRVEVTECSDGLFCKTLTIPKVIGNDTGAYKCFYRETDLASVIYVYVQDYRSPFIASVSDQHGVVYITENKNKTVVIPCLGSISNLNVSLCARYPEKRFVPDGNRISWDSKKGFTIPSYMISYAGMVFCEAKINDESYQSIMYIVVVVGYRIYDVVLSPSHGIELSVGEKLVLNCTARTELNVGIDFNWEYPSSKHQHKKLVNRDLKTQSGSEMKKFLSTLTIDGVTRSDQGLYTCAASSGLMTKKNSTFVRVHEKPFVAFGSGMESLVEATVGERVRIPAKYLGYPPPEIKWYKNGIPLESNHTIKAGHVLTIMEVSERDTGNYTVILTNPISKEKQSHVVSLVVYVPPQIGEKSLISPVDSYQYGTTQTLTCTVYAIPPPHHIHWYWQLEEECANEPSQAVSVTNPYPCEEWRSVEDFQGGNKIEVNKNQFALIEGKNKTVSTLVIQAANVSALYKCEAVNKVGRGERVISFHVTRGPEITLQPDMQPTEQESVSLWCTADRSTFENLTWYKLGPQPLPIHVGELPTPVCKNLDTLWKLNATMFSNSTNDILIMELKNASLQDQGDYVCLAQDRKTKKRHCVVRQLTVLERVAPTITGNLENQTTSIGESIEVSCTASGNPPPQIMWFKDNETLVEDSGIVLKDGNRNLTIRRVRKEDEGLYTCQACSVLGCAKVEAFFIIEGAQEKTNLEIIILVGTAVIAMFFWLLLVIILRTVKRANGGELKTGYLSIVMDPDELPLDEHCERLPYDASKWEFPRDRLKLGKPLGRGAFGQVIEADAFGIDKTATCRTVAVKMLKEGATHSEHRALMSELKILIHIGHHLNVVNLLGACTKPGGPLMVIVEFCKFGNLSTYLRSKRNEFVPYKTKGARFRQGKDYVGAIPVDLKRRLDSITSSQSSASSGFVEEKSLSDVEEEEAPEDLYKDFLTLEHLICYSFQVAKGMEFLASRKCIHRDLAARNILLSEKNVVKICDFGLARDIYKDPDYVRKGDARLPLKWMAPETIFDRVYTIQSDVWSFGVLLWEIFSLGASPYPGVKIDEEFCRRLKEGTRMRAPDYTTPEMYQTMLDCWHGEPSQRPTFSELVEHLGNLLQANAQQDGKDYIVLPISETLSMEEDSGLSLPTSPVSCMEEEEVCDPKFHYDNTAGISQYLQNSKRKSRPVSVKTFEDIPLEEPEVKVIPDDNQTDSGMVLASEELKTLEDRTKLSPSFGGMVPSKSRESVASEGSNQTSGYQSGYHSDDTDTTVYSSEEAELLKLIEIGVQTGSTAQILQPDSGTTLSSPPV
Chain of Proto-oncogene tyrosine-protein kinase receptor Ret (P07949 whole entry): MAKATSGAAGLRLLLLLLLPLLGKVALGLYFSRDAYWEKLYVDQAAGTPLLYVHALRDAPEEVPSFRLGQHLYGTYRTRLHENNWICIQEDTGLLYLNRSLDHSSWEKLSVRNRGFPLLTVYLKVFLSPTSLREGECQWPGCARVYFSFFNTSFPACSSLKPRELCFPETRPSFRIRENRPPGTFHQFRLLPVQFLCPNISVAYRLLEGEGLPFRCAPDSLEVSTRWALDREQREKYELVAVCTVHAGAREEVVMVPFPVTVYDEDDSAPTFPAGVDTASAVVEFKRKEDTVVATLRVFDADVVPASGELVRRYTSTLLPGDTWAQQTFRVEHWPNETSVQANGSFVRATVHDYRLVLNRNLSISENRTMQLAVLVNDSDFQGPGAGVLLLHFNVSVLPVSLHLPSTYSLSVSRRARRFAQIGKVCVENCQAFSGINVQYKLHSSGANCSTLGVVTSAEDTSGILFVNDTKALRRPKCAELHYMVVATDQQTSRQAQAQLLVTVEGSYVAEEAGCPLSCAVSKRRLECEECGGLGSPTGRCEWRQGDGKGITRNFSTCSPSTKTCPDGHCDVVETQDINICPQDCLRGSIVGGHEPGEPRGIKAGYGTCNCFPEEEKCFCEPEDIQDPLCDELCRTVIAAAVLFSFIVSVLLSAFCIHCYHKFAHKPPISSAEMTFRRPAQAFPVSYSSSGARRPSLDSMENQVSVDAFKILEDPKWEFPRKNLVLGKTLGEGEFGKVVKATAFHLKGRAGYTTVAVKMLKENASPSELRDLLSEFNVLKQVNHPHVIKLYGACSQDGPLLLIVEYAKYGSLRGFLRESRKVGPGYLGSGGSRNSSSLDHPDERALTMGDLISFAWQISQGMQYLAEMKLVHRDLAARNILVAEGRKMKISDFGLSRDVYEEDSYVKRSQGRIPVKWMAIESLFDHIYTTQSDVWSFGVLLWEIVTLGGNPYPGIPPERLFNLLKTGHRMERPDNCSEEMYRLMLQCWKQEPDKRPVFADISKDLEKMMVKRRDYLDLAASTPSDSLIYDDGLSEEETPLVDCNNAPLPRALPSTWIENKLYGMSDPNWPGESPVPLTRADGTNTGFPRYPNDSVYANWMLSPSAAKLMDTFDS
Chain of Glycogen synthase kinase-3 beta (P49841 whole entry): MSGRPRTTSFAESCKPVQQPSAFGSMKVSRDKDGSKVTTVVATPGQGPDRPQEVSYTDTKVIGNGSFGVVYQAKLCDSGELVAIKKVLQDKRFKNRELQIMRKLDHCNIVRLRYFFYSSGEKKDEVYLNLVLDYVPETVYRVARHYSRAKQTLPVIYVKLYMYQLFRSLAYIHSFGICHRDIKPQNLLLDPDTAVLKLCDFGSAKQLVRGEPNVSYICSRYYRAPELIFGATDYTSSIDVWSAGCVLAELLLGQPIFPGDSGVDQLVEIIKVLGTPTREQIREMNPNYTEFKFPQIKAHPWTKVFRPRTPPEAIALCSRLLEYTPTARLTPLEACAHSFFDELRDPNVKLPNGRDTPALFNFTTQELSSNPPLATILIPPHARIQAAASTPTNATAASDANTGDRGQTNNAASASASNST
Chain of Calcium/calmodulin-dependent protein kinase type II subunit alpha (Q9UQM7 whole entry): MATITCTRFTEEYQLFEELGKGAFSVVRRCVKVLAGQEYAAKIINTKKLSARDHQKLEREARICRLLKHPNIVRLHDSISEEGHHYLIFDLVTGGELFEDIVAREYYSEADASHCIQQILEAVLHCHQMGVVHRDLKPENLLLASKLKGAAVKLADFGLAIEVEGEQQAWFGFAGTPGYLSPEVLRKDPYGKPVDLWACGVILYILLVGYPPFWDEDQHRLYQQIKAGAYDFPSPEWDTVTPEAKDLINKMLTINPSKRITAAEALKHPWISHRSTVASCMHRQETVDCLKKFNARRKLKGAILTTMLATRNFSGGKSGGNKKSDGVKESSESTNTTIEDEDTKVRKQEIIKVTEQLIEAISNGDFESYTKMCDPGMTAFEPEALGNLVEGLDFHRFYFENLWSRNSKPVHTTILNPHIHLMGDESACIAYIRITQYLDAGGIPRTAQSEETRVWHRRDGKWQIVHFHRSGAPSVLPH
Chain of Protein kinase C theta type (Q04759 whole entry): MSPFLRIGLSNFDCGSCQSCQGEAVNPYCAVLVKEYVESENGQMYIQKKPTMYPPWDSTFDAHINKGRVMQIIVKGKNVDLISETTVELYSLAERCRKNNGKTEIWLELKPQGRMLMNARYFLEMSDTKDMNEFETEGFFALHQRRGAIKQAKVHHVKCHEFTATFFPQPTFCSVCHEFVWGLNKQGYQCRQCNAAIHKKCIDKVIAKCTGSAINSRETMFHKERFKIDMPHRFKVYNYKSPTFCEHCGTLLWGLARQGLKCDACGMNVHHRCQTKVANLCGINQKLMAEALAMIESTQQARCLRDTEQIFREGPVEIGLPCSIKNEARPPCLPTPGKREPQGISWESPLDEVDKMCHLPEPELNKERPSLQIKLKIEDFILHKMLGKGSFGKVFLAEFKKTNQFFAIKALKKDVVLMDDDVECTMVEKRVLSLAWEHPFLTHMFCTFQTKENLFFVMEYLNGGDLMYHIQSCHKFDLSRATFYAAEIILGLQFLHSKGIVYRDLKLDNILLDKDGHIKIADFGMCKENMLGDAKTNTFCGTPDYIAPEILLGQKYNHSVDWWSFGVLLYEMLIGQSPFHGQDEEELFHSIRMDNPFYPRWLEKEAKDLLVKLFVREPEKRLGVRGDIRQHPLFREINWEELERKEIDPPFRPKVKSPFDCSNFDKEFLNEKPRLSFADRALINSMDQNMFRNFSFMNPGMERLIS
Chain of G protein-coupled receptor kinase 5 (P34947 whole entry): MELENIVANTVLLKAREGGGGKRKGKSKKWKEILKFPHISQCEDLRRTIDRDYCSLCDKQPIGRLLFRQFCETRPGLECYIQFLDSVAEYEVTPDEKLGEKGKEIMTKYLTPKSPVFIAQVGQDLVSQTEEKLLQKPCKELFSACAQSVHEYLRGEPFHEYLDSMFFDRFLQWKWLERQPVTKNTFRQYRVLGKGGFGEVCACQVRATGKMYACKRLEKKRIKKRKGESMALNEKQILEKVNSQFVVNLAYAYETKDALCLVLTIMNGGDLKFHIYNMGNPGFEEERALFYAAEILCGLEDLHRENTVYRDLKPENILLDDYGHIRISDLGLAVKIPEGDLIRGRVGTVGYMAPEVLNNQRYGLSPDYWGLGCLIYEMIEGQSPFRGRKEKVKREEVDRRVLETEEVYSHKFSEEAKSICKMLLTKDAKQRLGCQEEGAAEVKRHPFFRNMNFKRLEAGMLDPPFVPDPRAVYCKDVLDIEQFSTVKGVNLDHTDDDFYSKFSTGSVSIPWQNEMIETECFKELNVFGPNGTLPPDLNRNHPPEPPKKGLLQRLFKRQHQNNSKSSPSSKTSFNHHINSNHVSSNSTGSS
Chain of Cyclin-dependent kinase 5 (Q00535 whole entry): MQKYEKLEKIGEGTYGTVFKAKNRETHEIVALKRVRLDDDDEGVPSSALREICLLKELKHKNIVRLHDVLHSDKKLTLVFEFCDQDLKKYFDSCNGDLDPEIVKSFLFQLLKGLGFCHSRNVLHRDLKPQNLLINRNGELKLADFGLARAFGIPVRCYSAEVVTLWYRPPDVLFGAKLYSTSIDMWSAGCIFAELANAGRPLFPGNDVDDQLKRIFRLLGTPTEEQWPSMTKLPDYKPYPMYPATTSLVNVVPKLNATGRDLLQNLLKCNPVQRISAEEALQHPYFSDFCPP

Ki [1]	Ki [2]	Ki [3]	Ki [4]	Ki [5]	Ki [6]	Ki [7]	Ki [8]	Ki [9]	Ki [10]	Ki [11]	Ki [12]	Ki [13]	Ki [14]	Ki [16]	Ki [17]	Ki [18]	Ki [19]	Ki [20]	Compound	Ki [15]	also measured
> 3.16 µM (inactive)	> 3.16 µM (inactive)	> 2.51 µM (inactive)	> 3.16 µM (inactive)	0.0316 µM (active)	> 3.98 µM (inactive)	> 3.98 µM (inactive)	> 5.01 µM (inactive)	> 3.98 µM (inactive)	> 1.58 µM (inactive)	> 3.98 µM (inactive)	> 3.16 µM (inactive)	> 3.16 µM (inactive)	> 3.98 µM (inactive)	> 3.98 µM (inactive)	> 3.98 µM (inactive)	> 2.51 µM (inactive)	> 6.31 µM (inactive)	> 3.98 µM (inactive)	COc1cccc(C(C)NC(=O)c2sc(-c3ccncc3)nc2C)c1 (stereo unspecified)	> 5.01 µM (inactive)	Ki [21]: > 6.31 µM (inactive); Ki [22]: > 3.16 µM (inactive)
> 3.16 µM (inactive)	> 3.16 µM (inactive)	> 2.51 µM (inactive)	1 µM (active)	> 0.0316 µM (inactive)	> 3.98 µM (inactive)	> 7.94 µM (inactive)	> 5.01 µM (inactive)	1.58 µM (active)	> 1.58 µM (inactive)	> 3.98 µM (inactive)	> 3.16 µM (inactive)	> 3.16 µM (inactive)	> 3.98 µM (inactive)	> 3.98 µM (inactive)	> 3.98 µM (inactive)	> 2.51 µM (inactive)	> 6.31 µM (inactive)	> 3.98 µM (inactive)	CCCCC(=O)Nc1cc(-c2c[nH]c3ncccc23)cc(Cl)n1	> 3.16 µM (inactive)	Ki [21]: > 6.31 µM (inactive); Ki [22]: > 3.16 µM (inactive)
> 3.16 µM (inactive)	> 3.16 µM (inactive)	> 2.51 µM (inactive)	> 3.16 µM (inactive)	> 3.98 µM (inactive)	0.794 µM (active)	> 3.98 µM (inactive)	0.501 µM (active)	> 3.98 µM (inactive)	> 1.58 µM (inactive)	> 3.98 µM (inactive)	> 3.16 µM (inactive)	> 3.16 µM (inactive)	> 3.98 µM (inactive)	> 2.51 µM (inactive)	> 3.98 µM (inactive)	> 2 µM (inactive)	> 6.31 µM (inactive)	> 3.98 µM (inactive)	Oc1ccc(-c2nc(-c3ccncc3)c(-c3ccc(F)cc3)[nH]2)cc1 [SB-202190]	> 5.01 µM (inactive)	Ki [21]: > 6.31 µM (inactive); Ki [22]: > 3.16 µM (inactive)
